Like-named read-outs stand apart in the source and are kept apart here. No end group written: not given here.
Tests used:
[1] = tested on: normal pregnant Sprague Dawley rats; test: Blood pressure after bolus IP injection in instrumented normal pregnant Sprague Dawley rats; format: in vivo, rat; conditions: for duration of sustained reduction of blood pressure (hypotensive effect): bolus IP injection, 100 nmoles/kg, normal pregnant Sprague Dawley rats
From the text: (§1) Bolus IP injection of the long-acting stable analog (100 nmoles/kg) led to a sustained reduction of blood pressure for 4 hr in normal pregnant Sprague Dawley rats, whereas the hypotensive effects of wild-type ADM disappeared within 2 hr (FIG. 1a). In addition, we compared the blood pressure-lowering effect of the long-acting stable analog in pregnant Sprague Dawley rats and pregnant spontaneous hypertensive rats (SHR). […] This characteristic not only allows less frequent dosing in clinical condition but also increases the therapeutic index of long-acting CLR/RAMP receptor agonists.

pregnant SHR rats = test: Blood pressure after injection in pregnant spontaneous hypertensive rats (SHR); format: in vivo, rat; conditions: low dose 30 nmoles/kg
From the text: as §1

RUPP pregnant rats = test: Reduced uterine perfusion pressure (RUPP) preeclampsia rat model, osmotic mini-pump infusion for 4 days; format: in vivo
Experimental: To evaluate the effects of the long-acting stable analog for the treatment of preeclampsia, resistant hypertension, hypertensive crisis, vascular ischemic injury, and pregnancy hypertension, we tested the analog in a reduced uterine perfusion pressure (RUPP) preeclampsia rat model. The model was first described by Dr. Joey P. Granger et al. (2000, Hypertension 37:1191-1195). Briefly, pregnant rats weighing 200-250 g at 14 days of gestation were anesthetized with pentobarbital (40 mg/kg, i.p.). The lower abdomen area was shaved and the skin was swabbed with surgical scrub (iodine and alcohol). A 3-cm skin incision was made at the midline. After a midline incision, the lower abdominal aorta was isolated and a silver clip (0.203 mm) was placed around the aorta above the iliac bifurcation. Because compensatory blood flow to the placenta occurs via an adaptive increase in […] blood flow during pregnancy, both right and left […] arcades were clipped (silver clip, 0.100 mm). RUPP rats were divided into two groups, and an osmotic mini-pump (ALZET) loaded with saline or the long-acting analog was implanted in the upper abdomen. The mini-pumps delivered the solution at a rate of 1 ul/hr. Sham pregnant rats were used as normal controls.
The incision was closed with absorbable braided surgical suture. After awake, animals were given buprenorphine 0.1 mg/kg s.c. once a day for three days. These procedures reduced uterine blood flow in the gravid rat by >40%, and cause hypertension and intrauterine growth restriction in the fetus.
After 4 days of the treatments, all rats were anesthetized and catheterized for measurement of blood pressure and heart rate. Animals were anesthetized with pentobarbital, and a Mikro-tip catheter (1.0 F pressure catheter, Miller, Tex.) was placed into the right carotid artery. After insertion, the catheter was advanced into the aorta, and stopped at the appearance of arterial pressure curve. The Mikro-tip catheter was connected to a Powerlab system, and blood pressure and heart rate was recorded and saved in a computer. In addition, the blood flow velocity above and below the artery constriction site was determined by a Doppler method.
After the hemodynamic measurement was completed (taking about 0.5-1 hr), rats were euthanized. The fetuses, placenta tissues, and hearts were harvested and weighed individually.

C57/B6 mice [2] = test: Doxorubicin-induced cardiomyopathy in adult mice, heart weight; format: in vivo; conditions: for average heart weight: sixth day
Experimental: (§2) To evaluate the effects of the long-acting stable analog on heart failure, we treated 8-week-old C57/B6 mice with doxorubicin (10 mg/kg body weight) to induce cardiomyopathy. After the injection of doxorubicin, the animals were injected with wild-type ADM or the long-acting stable analog twice daily. After five days of treatment, the animals were sacrificed, and hearts were collected for weight determination individually. In addition, we collected blood samples for the determination of aspartate aminotransferase activity. Sham adult mice at the same ages were used as normal controls.

C57/B6 mice [3] = format: in vivo
Experimental: as §2
In a separate series of study, we evaluated the effects of stable analog on blood aspartate aminotransferase levels (FIG. 4b).

[4] = high dosage 10 μg/kg/hr for four days
[5] = low dose 3.3 μg/kg/hr for four days

Q: What does the source list for “Ace-K(Pal)GCRFGTCTVQKLAHQIYQFTDKDKDNVAPRSKISPQGY-NH2 (KGCRFGTCTVQKLAHQIYQFTDKDKDNVAPRSKISPQGY; N-acetyl, palmitoyl-Lys, C-terminal amide; MOD_RES (1)..(1) …ON; LIPID (1)..(1) …; MOD_RES (39)..(39) AMIDATION) [long-acting stable analog]”?
A: duration of sustained reduction of blood pressure (hypotensive effect) [1]: 4 h; duration of blood pressure reduction ([1]; low dose 30 nmoles/kg, pregnant Sprague Dawley rats): 2 h; duration of hypotensive effects (pregnant SHR rats): over 8 hr; average fetus weight (RUPP pregnant rats; [4]): 483 ± 92 mg; average heart weight (RUPP pregnant rats; [4]): 3.16±0.06 mg per gram body weight; average placenta weight (RUPP pregnant rats; [4]): 253 ± 36 mg; body weight lost during the four-day experimental period (RUPP pregnant rats; [4]): 3±3 grams; heart rate (RUPP pregnant rats; [4]): 379±8 beats/min; mean arterial pressure (RUPP pregnant rats; [4]): 93±5 mmHg; average fetus weight (RUPP pregnant rats; [5]): 577 ± 166 mg; average placenta weight (RUPP pregnant rats; [5]): 301 ± 46 mg; mean arterial pressure (RUPP pregnant rats; [5]): 107±4 mmHg; average heart weight (C57/B6 mice [2]; co-treatment with doxorubicin 10 mg/kg, peptide injected twice daily, five days): 11.0 ± 0.6 mg; blood aspartate aminotransferase level (C57/B6 mice [3]; Dox + stable analog, high dose 50 nM/Kg body weight): 200.1±10.0 U/liter; effect on doxorubicin-elevated aspartate aminotransferase level (C57/B6 mice [3]; Dox + stable analog, low dose 25 nM/Kg BW): no statistically significant effect

Q: What does the source list for `COc1cccc2c1C(=O)c1c(O)c3c(c(O)c1C2=O)C[C@@](O)(C(=O)CO)C[C@@H]3O[C@H]1C[C@H](N)[C@H](O)[C@H](C)O1` [doxorubicin, reference compound]?
A: average heart weight (C57/B6 mice [2]; doxorubicin 10 mg/kg body weight alone (Dox group)): 9.3 ± 0.4 mg; blood aspartate aminotransferase level (C57/B6 mice [3]; mouse, in vivo): 300.7±33.6 U/liter

Q: For “adrenomedullin (YRQSMNNFQGLRSFGCRFGTCTVQKLAHQIYQFTDKDKDNVAPRSKISPQGY; ends and bridges not checked; cysteine pairing not given here; UniProt P35318 95-146, looked up) [wild-type ADM, wild-type adrenomedullin, 52 amino acids, 1 intramolecular disulfide bond, ligand of CLR/RAMP receptors, reference compound]”, which “duration of sustained reduction of blood pressure (hypotensive effect)” value [1] is on record?
A: The value was no more than 2 h.

Q: What about the “reduction of doxorubicin-induced loss of heart weight” value (C57/B6 mice [2]; co-treatment with doxorubicin 10 mg/kg, peptide injected twice daily, five days, Dox group vs. Dox+ADM group) of the same compound?
A: Its value is “not statistically significant”.

Source: US11701409B2, “Dosing and use of long-acting CLR/ramp agonists” (Adepthera LLC, priority 2016, dated 2023)
